# According to patent US20190142993A1, “ULTRA-THIN, HIGH STRENGTH, DRUG-LOADED SUTURES AND COATINGS THEREOF” (The Johns Hopkins University, priority 2016, published 2019):
# Test system: corneas of Sprague-Dawley rats
# Settings: rat, in vivo
# Description: For assessment of in vivo biocompatibility, animals were cared for and experiments conducted in accordance with protocols approved by the Animal Care and Use Committee of the Johns Hopkins University. Protocols are also in accordance with the ARVO Statement for the Use of Animals in Ophthalmic and Vision Research. […] Prior to implantation, rats were intraperitoneally anesthetized with a solution of Ketamine:Xylazine (75:5 mg/kg, Sigma Aldrich) and a drop of 0.5% proparacaine hydrochloride ophthalmic solution (Bausch & Lomb Inc., Tampa, Fla.) was applied to the cornea. Following implantation, the rats were evaluated for signs of infection every day for seven days. The rats were then euthanized and eyes enucleated, fixed in formalin (Sigma Aldrich) for 24 h, embedded in paraffin, cross sectioned, and stained with hematoxylin and eosin for histological evaluation.
substance,measurement,value
nylon,tissue reaction (histological analysis),no obvious signs of neovascularization or inflammation
